Assay results reported in US20170173105A1, “AUTOASSEMBLING PEPTIDES FOR THE TREATMENT OF PULMONARY LEAKAGE” (3-D MATRIX, LTD., priority 2014, published 2017).

Legend:
[1] = test system: pleural defects in swine lungs; test: Burst pressure of peptide hydrogels as air sealants on pleural defects of swine lungs; conditions: for ranking of burst pressures: 16 G pleural defects, 2.5% RADA16+0.25 M CaCl2 and 1.5% IEIK13
From the text: Swine lungs were obtained from freshly euthanized pigs. An endotracheal tube was inserted through the trachea and primary bronchus into the lung of interest. Pressure was supplied to the lungs with the use of a manual endotracheal intubation pump. The trachea was tied off to prevent air leakage around the tube. The primary bronchus of the other lung was clamped to direct all airflow to the lung of interest. A manometer was used to measure the pressure of air directed into the lungs to induce expansion.
The self-assembling peptide hydrogels were comprised of Ac-RADARADARADARADA-NH2 (i.e. RADA16) (SEQ ID NO: 1), Ac-KLDLKLDLKLDL-NH2 (i.e. KLD12) (SEQ ID NO: 3), or Ac-IEIKIEIKIEIKI-NH2 (i.e. IEIK13) (SEQ ID NO: 2) with either RADA16 or KLD12 alone or mixed with 0.250 M calcium chloride. If alone, the peptides were reconstituted in deionized water. If, however the peptides were reconstituted with 0.250 M calcium chloride solution, the peptides were reconstituted first in deionized water, and subsequently, a 0.500 M solution of calcium chloride was mixed in at a 1:1 ratio.
The pleural defects were created using three different methods to measure the efficacy of the self-assembling peptide hydrogels: (1) A 16 gauge needle was used to puncture the lung and pleura, (2) A 5×5 mm area was measured and the lung and pleura were clipped using a pair of surgical scissors, and (3) A lobectomy (i.e. a complete resection of one lobe of the lung of interest). A 0.9% saline solution was streamed over the defect area and the location of the defect was identified by using the endotracheal intubation pump system to introduce air and observing the release of air bubbles.
Once the location of the defect was identified, the hydrogels were applied to the defect area via two different methods: (1) the hydrogel was applied topically by injecting through a syringe onto the defect area, and (2) the hydrogel was injected into the defect through an 18 gauge needle with overflow to cover the defect area topically. After a relaxation period of 2 min, pressure was applied through the endotracheal intubation pump until a burst pressure was identified. For any additional tests, airflow to the previously tested defect was cut off using a surgical clamp.

[2] = Gelation kinetics of pH adjusted peptides, time sweep with DMEM added; assay type: physicochemical
Experimental: The effect of pH level on the properties of gelation kinetics was evaluated to identify optimized pH levels for the peptides as described herein. Fast gelation kinetics of PuraMatrix® and other peptides within body fluid may generally improve its function and response time for various clinical applications. The pH level may impart response time to begin gelation when treated with simulated body fluid including but not limited to DMEM. […] A fast response time of PuraMatrix® and other peptides within body fluid may generally improve its function and response time for various clinical applications.
(§1) Time sweep tests were performed at 1 rad/sec and at 1 Pa with 20 mm plates and 500 μm gap distance. During time sweep test of PuraMatrix® 2.5% solution, DMEM was added into the chamber surrounding the measuring plates to soak PuraMatrix® solution at 0 time point. The results are shown in FIG. 9A for PuraMatrix® 2.5% solution.
as §1, with “IEIK13 1.5%” for “PuraMatrix® 2.5%”, “IEIK13 1.5%” for “PuraMatrix®”, “point and continuously data was recorded.” for “point.”, “9B” for “9A”

[3] = Rheological properties of peptide solutions (1%) before and after DMEM treatment (rheometer); assay type: physicochemical; conditions: DMEM 2 minutes, compared with weaker peptide solutions (i.e. PuraMatrix®)
Experimental: The effects of Dulbecco's modified Eagle's medium (DMEM) (pH 7.4) on the rheological properties of IEIK13, KLD12, and PuraMatrix® were evaluated on a rheometer (AR500, TA Instruments) with 40 mm plates. DMEM is generally a cell culture medium that contains 6.4 g/L of NaCl, 3.4 g/L NaHCO3 (sodium bicarbonate), minor amounts of other salts, various amino acids, and 4.5 g/L of glucose. The pH level of DMEM is generally 7.2±0.2 and the osmolality is 335±30 mOsm/Kg H2O; both measurements are close to human physiological fluids such as blood.
Peptide solutions (1%) were kept at 4° C. for at least 48 hours before testing. To perform the experiment, 1 mL of peptide solution was gently pipetted and placed on the plate of the rheometer. 2 mL of DMEM solution was gently added around the peptide solution. The peptide solution was treated with DMEM for two minutes, then the media was removed, and the plates were placed at a measuring geometry gap at around 450 μm. Measurements were performed at 37° C. after 2 min of relaxation time. Frequency tests were performed from 1 rad/s to 100 rad/s at 1 Pa of oscillation stress.
The rheological properties of the peptides (1%) were compared before and after DMEM treatment for 2 minutes, as shown in FIG. 1A. […]

[4] = with pH adjustment, PuraMatrix 2.5%, IEIK13 1.5% solution

Question: Which “effect of increasing exposure time on burst pressure” value ([1]; 2.5% RADA16, 16 G pleural defect, varying time points) does the source give for “Arg-Ala-Asp-Ala-Arg-Ala-Asp-Ala-Arg-Ala-Asp-Ala-Arg-Ala-Asp-Ala [PuraMatrix ®]” here?
Answer: increased the burst pressure

Question: And the “effect of needle gauge of pleural defect on burst pressure” value ([1]; 2.5% RADA16 applied topically, 14, 16, 18, and 22 gauge needles)?
Answer: negligible changes in burst pressures

Question: What about the “effect of topically added NaCl solution on burst pressure” value ([1]; 2.5% RADA16 topically, 16 G pleural defect, 0.154 M NaCl gently massaged in) of the same substance?
Answer: slightly increased

Question: What about the “ranking of burst pressures” value [1] of the same substance?
Answer: best burst pressures

Question: What about the “storage modulus response after DMEM addition” value [2, 4] of the same substance?
Answer: immediate storage modulus increase

Question: What about the “initial time without storage modulus increase after DMEM addition” value ([2]; without pH adjustment (pH 2.2), 2.5% solution) of the same substance?
Answer: 13 s

Question: Which results are given for “Ile-Glu-Ile-Lys-Ile-Glu-Ile-Lys-Ile-Glu-Ile-Lys-Ile [IEIK13]”?
Answer: ranking of burst pressures [1]: best burst pressures; fold increase of storage modulus after DMEM treatment [3]: lower-fold increase; storage modulus response after DMEM addition [2, 4]: immediate storage modulus increase; storage modulus response after DMEM addition ([2]; without pH adjustment, 1.5% solution): immediate storage modulus increase
